Assay results published in publication PMC4467398, “Preclinical antitumor activity of ST7612AA1: a new oral thiol-based histone deacetylase (HDAC) inhibitor” (Oncotarget, 2014).
Like-named read-outs stand apart in the source and are kept apart here.

Assays:
[1] = test system: splenic marginal zone lymphoma (SMZL) cell lines; assay: In vitro proliferation assay, lymphoma panel (summary); format: cell-based; settings: Homo sapiens
Protocol: (§1) Anti-proliferative activity was first assessed on a panel of cell lines derived from solid tumors and hematological cancers and then on a large panel of cell lines derived from mature B-cell lymphomas. […] Lymphoma cells were seeded in 96-wells tissue culture plates in complete medium and were exposed to increasing concentrations of ST7612AA1 for 48 or 72 h; the anti-proliferative activity was assessed using 3-(4,5-dimethylthiazol-2-yl)-2,5-diphenyltetrazolium bromide (MTT). The drug potency was evaluated by means of the “ALLFIT” computer program and defined as IC50 (drug concentration required for 50% inhibition of cell survival).

[2] = test system: mantle cell lymphoma (MCL) cell lines; assay: as above; format: cell-based; settings: Homo sapiens
Protocol: as §1

GCB-DLBCL cell lines = assay: as above; format: cell-based; settings: Homo sapiens
Protocol: as §1

mature B cell lymphomas = assay: as above; format: cell-based; settings: Homo sapiens, different mature B cell lymphomas
Protocol: as §1

ABC-DLBCL cell lines = assay: as above; format: cell-based; settings: Homo sapiens
Protocol: as §1

[3] = test system: Mantle cell lymphoma Granta-519; assay: In vitro proliferation assay (MTT); format: cell-based; settings: Homo sapiens, 72 h, mean ± S.E.M.
Protocol: as §1

ABC-DLBCL U2932 = assay: In vitro proliferation assay (MTT); format: cell-based; settings: Homo sapiens, 72 h, mean ± S.E.M.
Protocol: as §1

[4] = test system: Mantle cell lymphoma REC-1; assay: In vitro proliferation assay (MTT); format: cell-based; settings: Homo sapiens, Rec1, 72 h, mean ± S.E.M.
Protocol: as §1

GCB-DLBCL DOHH2 = assay: In vitro proliferation assay (MTT); format: cell-based; settings: Homo sapiens, DOHH-2, 72 h, mean ± S.E.M.
Protocol: as §1

ABC-DLBCL OCI-Ly10 = assay: In vitro proliferation assay (MTT); format: cell-based; settings: Homo sapiens, 72 h, mean ± S.E.M.
Protocol: as §1

Colon cancer HCT116 = assay: In vitro proliferation assay (sulphorodamine B); format: cell-based; settings: Homo sapiens, HCT-116, 72 h, mean ± S.E.M.
[5] = test system: Chronic myeloid leukemia K562; assay: In vitro proliferation assay (sulphorodamine B); format: cell-based; settings: Homo sapiens, 72 h, mean ± S.E.M.
Breast cancer MDA-MB436 = assay: In vitro proliferation assay (sulphorodamine B); format: cell-based; settings: Homo sapiens, MDA-MB-436, 72 h, mean ± S.E.M.
[6] = test system: DOHH2 and TMD8 DLBCL cells; assay: Gene Set Enrichment Analysis (GSEA) of gene expression profiles, ST7612AA1 300 nM 8 hrs; format: cell-based, human
[7] = C2.CP.CGP, down-regulated genes
[8] = C2.CP.KEGG, down-regulated genes
[9] = C2.CP.REACTOME, down-regulated genes
[10] = GSEA.C2.CP.BIOCARTA, up-regulated genes
[11] = GSEA.C2.CP.CGP, up-regulated genes
[12] = GSEA.C2.CP.KEGG, up-regulated genes
[13] = GSEA.C2.CP.REACTOME, up-regulated genes
[14] = GSEA.C3.TFT, in both sheets (down- and up-regulated)
[15] = SignatureDB, down-regulated genes
[16] = SignatureDB, up-regulated genes

## CC(=O)SCCCCC[C@H](NC(=O)[C@H]1CCC(=O)N1)C(=O)Nc1ccccc1 [ST7612AA1]
[1]; read-out: IC50 range
  IC50: 102 to 257 nM
[1]; read-out: median IC50
  IC50: 119 nM
[2]; read-out: IC50 range
  IC50: 248 to 553 nM
[2]; read-out: median IC50
  IC50: 433 nM
GCB-DLBCL cell lines; read-out: IC50 range
  IC50: 46 to 2660 nM
GCB-DLBCL cell lines; read-out: median IC50
  IC50: 597 nM
Mature B cell lymphomas; read-out: IC50 range
  IC50: 46 to 2660 nM
Mature B cell lymphomas; read-out: median IC50
  IC50: 375 nM
ABC-DLBCL cell lines; read-out: IC50 range
  IC50: 101 to 805 nM
ABC-DLBCL cell lines; read-out: median IC50
  IC50: 257 nM
[3]
  IC50: 470 nM
ABC-DLBCL U2932
  IC50: 800 nM
[4]
  IC50: 550 nM
GCB-DLBCL DOHH2
  IC50: 46 ± 10 nM
ABC-DLBCL OCI-Ly10
  IC50: 260 nM
Colon cancer HCT116
  IC50: 75 ± 10 nM
[5]
  IC50: 190 ± 20 nM
Breast cancer MDA-MB436
  IC50: 180 ± 10 nM
[6]; [7]
  NES GARY_CD5_TARGETS_DN: -2.075
  NES HELLER_HDAC_TARGETS_DN: -2.119
  NES MANALO_HYPOXIA_DN: -2.295
  NES PEART_HDAC_PROLIFERATION_CLUSTER_DN: -2.218
  NES PENG_GLUTAMINE_DEPRIVATION_DN: -2.059
  NES SCHLOSSER_MYC_TARGETS_AND_SERUM_RESPONSE_DN: -2.302
  NES SCHLOSSER_MYC_TARGETS_AND_SERUM_RESPONSE_UP: -2.093
  NES SCHLOSSER_MYC_TARGETS_REPRESSED_BY_SERUM: -2.287
  NES SCHUHMACHER_MYC_TARGETS_UP: -2.188
  NES ZHONG_RESPONSE_TO_AZACITIDINE_AND_TSA_DN: -2.061
[6]; [8]
  NES KEGG_AMINOACYL_TRNA_BIOSYNTHESIS: -2
  NES KEGG_BASE_EXCISION_REPAIR: -1.385
  NES KEGG_CELL_CYCLE: -1.433
  NES KEGG_N_GLYCAN_BIOSYNTHESIS: -1.4288
  NES KEGG_ONE_CARBON_POOL_BY_FOLATE: -1.545
  NES KEGG_PROTEASOME: -1.717
  NES KEGG_PYRIMIDINE_METABOLISM: -1.58
  NES KEGG_RENIN_ANGIOTENSIN_SYSTEM: -1.474
  NES KEGG_RNA_DEGRADATION: -1.656
  NES KEGG_SPLICEOSOME: -1.947
[6]; [9]
  NES REACTOME_ASSEMBLY_OF_THE_PRE_REPLICATIVE_COMPLEX: -1.875
  NES REACTOME_DEADENYLATION_DEPENDENT_MRNA_DECAY: -1.915
  NES REACTOME_METABOLISM_OF_NON_CODING_RNA: -2.068
  NES REACTOME_METABOLISM_OF_RNA: -1.941
  NES REACTOME_MITOCHONDRIAL_PROTEIN_IMPORT: -1.944
  NES REACTOME_MRNA_PROCESSING: -1.945
  NES REACTOME_MRNA_SPLICING: -2.002
  NES REACTOME_PROCESSING_OF_CAPPED_INTRON_CONTAINING_PRE_MRNA: -2.059
  NES REACTOME_REGULATION_OF_MITOTIC_CELL_CYCLE: -1.812
  NES REACTOME_TRNA_AMINOACYLATION: -1.958
[6]; [10]
  NES BIOCARTA_ARAP_PATHWAY: 1.7296
  NES BIOCARTA_CCR5_PATHWAY: 1.628
  NES BIOCARTA_COMP_PATHWAY: 1.713
[6]; [11]
  NES BERTUCCI_MEDULLARY_VS_DUCTAL_BREAST_CANCER_DN: 2.239
  NES CHEN_LVAD_SUPPORT_OF_FAILING_HEART_UP: 2.236
  NES DUTERTRE_ESTRADIOL_RESPONSE_24HR_DN: 2.118
  NES GALINDO_IMMUNE_RESPONSE_TO_ENTEROTOXIN: 2.132
  NES GAUSSMANN_MLL_AF4_FUSION_TARGETS_E_UP: 2.11
  NES HELLER_HDAC_TARGETS_SILENCED_BY_METHYLATION_UP: 2.6813
  NES HELLER_HDAC_TARGETS_UP: 2.622
  NES KINSEY_TARGETS_OF_EWSR1_FLII_FUSION_DN: 2.138
  NES PEART_HDAC_PROLIFERATION_CLUSTER_UP: 2.166
  NES ZHONG_RESPONSE_TO_AZACITIDINE_AND_TSA_UP: 2.29
[6]; [12]
  NES KEGG_ASTHMA: 1.8598
  NES KEGG_AXON_GUIDANCE: 1.813
  NES KEGG_CELL_ADHESION_MOLECULES_CAMS: 1.93
  NES KEGG_ENDOCYTOSIS: 1.748
  NES KEGG_EPITHELIAL_CELL_SIGNALING_IN_HELICOBACTER_PYLORI_INFECTION: 1.747
  NES KEGG_FOCAL_ADHESION: 1.8042
  NES KEGG_LEUKOCYTE_TRANSENDOTHELIAL_MIGRATION: 1.726
  NES KEGG_LYSOSOME: 1.886
  NES KEGG_SYSTEMIC_LUPUS_ERYTHEMATOSUS: 2.269
  NES KEGG_VIBRIO_CHOLERAE_INFECTION: 1.733
[6]; [13]
  NES REACTOME_AMYLOIDS: 2.248
  NES REACTOME_CELL_CELL_JUNCTION_ORGANIZATION: 1.864
  NES REACTOME_DEPOSITION_OF_NEW_CENPA_CONTAINING_NUCLEOSOMES_AT_THE_CENTROMERE: 1.861
  NES REACTOME_MEIOSIS: 1.9137
  NES REACTOME_MEIOTIC_RECOMBINATION: 2.082
  NES REACTOME_MEIOTIC_SYNAPSIS: 1.86
  NES REACTOME_PACKAGING_OF_TELOMERE_ENDS: 2.135
  NES REACTOME_RNA_POL_I_PROMOTER_OPENING: 2.137
  NES REACTOME_RNA_POL_I_TRANSCRIPTION: 1.892
  NES REACTOME_TELOMERE_MAINTENANCE: 1.906
[6]; [14]
  NES TTTNNANAGCYR_UNKNOWN: 1.939
  NES V$CEBP_Q2: 1.715
  NES V$CEBP_Q2_01: 1.7492
  NES V$CREBP1_01: 1.784
  NES V$E4BP4_01: 1.766
  NES V$GATA_Q6: 1.724
  NES V$HLF_01: 1.724
  NES V$MYOGENIN_Q6: 1.714
  NES V$OCT1_B: 1.782
  NES […]_UNKNOWN: 2.04
[6]; GSEA.C6, down-regulated genes
  NES CSR_EARLY_UP.V1_UP: -1.379
  NES EIF4E_UP: -1.468
  NES ERB2_UP.V1_DN: -1.443
  NES ESC_J1_UP_LATE.V1_DN: -1.204
  NES GCNP_SHH_UP_EARLY.V1_UP: -1.491
  NES GCNP_SHH_UP_LATE.V1_UP: -1.454
  NES MEK_UP.V1_DN: -1.169
  NES MYC_UP.V1_UP: -2.19
  NES VEGF_A_UP.V1_DN: -1.363
[6]; GSEA.C6, up-regulated genes
  NES BCAT.100_UP.V1_UP: 1.912
  NES CAHOY_NEURONAL: 1.833
  NES E2F3_UP.V1_UP: 1.833
  NES ERB2_UP.V1_UP: 2.065
  NES ESC_V6.5_UP_LATE.V1_UP: 1.857
  NES MEK_UP.V1_UP: 2.011
  NES P53_DN.V1_UP: 1.814
  NES RAF_UP.V1_UP: 1.891
  NES STK33_SKM_UP: 1.998
  NES STK33_UP: 1.832
[6]; [15]
  NES BLOOD_MODULE-3.7_UNDETERMINED: -2.014
  NES GLUTAMINE_STARVE_DOWN: -2.082
  NES HIF1ALPHA_1.5X_DOWN: -2.057
  NES MYC_CHIP_PET_EXPR_UP: -2.152
  NES MYC_OVEREXPRESSION_1.5X_UP: -2.439
  NES MYC_OVEREXPRESSION_2X_UP: -2.047
  NES MYELOMA_TACI_LOW_PLASMABLAST_GENE: -1.944
  NES NOTCH_T-ALL_UP_PALOMERO: -2.039
  NES PROLIFERATION_NODE1640: -2.024
  NES RAPAMYCIN_BJAB_DOWN: -1.887
[6]; [16]
  NES BLOOD_MODULE-1.2_PLATELETS: 0.6607
  NES BLOOD_MODULE-3.2_INFLAMMATION-1: 0.6587
  NES CNS_PNS_NODE1663: 0.6849
  NES HIF1ALPHA_1.5X_UP: 0.6544
  NES HRAS_OVEREXPRESSION_4X_UP: 0.6606
  NES JAK2_DOWNREGULATED_PMBL: 0.6252
  NES KRAS_UP: 0.6774
  NES NORMAL_MESENCHYMAL-1_NODE1643: 0.6887
  NES RETICULOCYTE_LARGE: 0.7092
  NES SERUM_RESPONSE_FB_DOWN: 0.6176
